# Test results from patent US12653776B2, “Methods of treatment of cancer by continuous infusion of coenzyme Q10” (priority 2013, dated 2026).
# Experiments:
# solid tumors [1] = experiment: Phase 1a/b study, 96-hour continuous IV infusion: tumor response and PET; type: in vivo, human
# Experimental: Assessments of the antitumor activity of coenzyme Q10 is performed at the end of Cycle 2 and every 2 cycles thereafter using standard techniques such as computerized tomography (CT) or magnetic resonance imaging (MRI) for patients with measurable disease. Response is evaluated using Response Evaluation Criteria in Solid Tumors (RECIST) v1.1. Patients who experience no unacceptable toxicity or disease progression, may receive additional 28-day cycles for up to 1 year on Arm 1 or 2. Patients on Arm 1 who progress may elect to continue coenzyme Q10 treatment in combination with gemcitabine, 5-FU, or docetaxel at the treating physician's discretion. Once a dose level of coenzyme Q10 monotherapy is evaluated and the CRC determines it safe to escalate to the next dose level, Cohort 1 of Treatment Arm 2 of coenzyme Q10 in combination with chemotherapy will open to accrual. Cohort 1 of Arm 2 patients are enrolled onto one of 3 chemotherapies, gemcitabine, 5-FU, or docetaxel. Cycle 1 of combination therapy (Arm 2) is 6 weeks in duration for patients with coenzyme Q10 administered twice weekly on Mondays and Wednesday for 6 weeks and chemotherapy administered on Fridays, Days 19, 26 and 33. Cycles 2-12 are 4 weeks in duration with coenzyme Q10 administered twice weekly on Mondays and Wednesdays for 4 weeks and chemotherapy administered on Fridays, Days 5, 12 and 19. Dose limiting toxicities are assessed during Cycle 1. Response is assessed after Cycle 2 (10 weeks) and responders who continue onto Cycles 2-12 are assessed every 2 cycles (8 weeks). […] Patients on Arm 2 who progress on one type of chemotherapy may not switch to one of the other chemotherapy agents in combination with coenzyme Q10. However, if the chemotherapy component (i.e., 5-FU, gemcitabine, or docetaxel) of combination therapy is discontinued due to chemotherapy-related toxicity, patients may continue to receive coenzyme Q10 as monotherapy.
# Blood samples for pharmacokinetic and pharmacodynamic analyses are collected during each cycle of monotherapy and combination therapy. Urine samples for determination of coenzyme Q10 renal clearance are collected only during Cycle 1 of monotherapy and combination therapy. A PET scan is performed within 2 weeks prior to starting treatment and after 2 weeks of coenzyme Q10 treatment, and 8 weeks of treatment on Arm 1 or 10 weeks of treatment on Arm 2. Core biopsies (2-3) are performed at the time of baseline and Week 2 PET scan for patients who opt-in to participate in these exploratory studies.
# solid tumors [2] = experiment: Phase 1 study, 144-hour (6 day) continuous infusion; type: in vivo, human; settings: monotherapy and combination therapy
# Experimental: A phase 1 clinical trial evaluating a 144-hour (6 day) continuous infusion of coenzyme Q10 for treatment of solid tumors is earned out. Coenzyme Q10 is administered as a monotherapy (Arm 1) or in combination with chemotherapy (Arm 2). […] The study is an open label, non-randomized dose-escalation study. The estimated enrollment is 45 patients for monotherapy (Arm 1), and up to 120 patients for combination therapy (Arm 2).
# A dosing schedule of two 72-hour doses is used. For the first 72-hour dose, a loading dose over 1 hour is followed by infusion of the remainder of the dose over 71 hours at a lower rate. […]
# A phase 1 clinical trial for treatment of solid tumors using coenzyme Q10 monotherapy and coenzyme Q10 in combination with chemotherapy is carried out. […] Dose limiting toxicities are assessed during Cycle 1.
# Assessments of the antitumor activity of coenzyme Q10 are performed at the end of Cycle 2 and every 2 cycles thereafter using standard techniques such as computerized tomography (CT) or magnetic resonance imaging (MRI) for patients with measurable disease. Response is evaluated using Response Evaluation Criteria in Solid Tumors (RECIST) v1.1. […] Once a dose level of coenzyme Q10 monotherapy is evaluated and the CRC determines it safe to escalate to the next dose level, Cohort 1 of Treatment Arm 2 of coenzyme Q10 in combination with chemotherapy opens to accrual. […]
# [3] = Patient 1, 66 mg/kg week monotherapy, end of two cycles
substance,measurement,setting,value
coenzyme Q10,patients evaluable for efficacy showing various responses,"solid tumors [1]; Eight out of twelve patients, after dose level 2",75%
same,multiomics tissue analysis,"solid tumors [1]; Patient 1, 66 mg/kg week monotherapy",switch from anaerobic driven markers to oxidative phosphorylation
same,cervical lymph node metastases,solid tumors [1]; [3],disappearance of cervical lymph node metastases
same,size of the target lesion,solid tumors [1]; [3],minimal changes
same,decrease on PET-SUV,"solid tumors [1]; Patient 1, gastric adenocarcinoma, 66 mg/kg week monotherapy, end of two cycles",40%
same,PET/CT response,solid tumors [1]; Patient 1 after switch to combination arm adding weekly docetaxel,again showed metabolic responses by PET/CT
same,"Max SUV, Right iliac bone lesion","solid tumors [1]; Patient 2, gemcitabine + coenzyme Q10 66 mg/kg, Week 10 PET, from 2.3",1.9
same,"Max SUV, Omentum lesion 2","solid tumors [1]; Patient 2, gemcitabine + coenzyme Q10 66 mg/kg, Week 10 PET, from 3.5",2.8
same,non-target lesion response,"solid tumors [1]; Patient 2, gemcitabine + coenzyme Q10 66 mg/kg, lesion in the abdomen",complete response in one of the non-target lesions
same,"Max SUV, Omentum lesion 1","solid tumors [1]; Patient 2, metastatic bladder cancer, gemcitabine + coenzyme Q10 66 mg/kg, Week 10 PET, previous value 1.7",0.8
same,outcomes by RECIST criteria,solid tumors [1]; expected at the end of the ongoing study,clinically relevant outcomes
same,antitumor activity in a variety of solid tumors,"solid tumors [1]; gastric, pancreatic, colon, head and neck, NSCLC, mesothelioma, TN breast cancer",showed early activity at low doses
same,clinical and/or radiographic responses,solid tumors [2]; at least some patients,Clinical and/or radiographic responses are seen
same,safety and tolerability,solid tumors [2]; six day continuous infusion,safe and well tolerated
